Laboratory results taken from patent US7303618B1, “Ink for ink-jet recording” (Brother Kogyo Kabushiki Kaisha, priority 2006, dated 2007).

Experiment: Ozone resistance (OD value reduction of printed patch)
Format: physicochemical
Conditions: discussion of Table 1
From the text: Each of the inks for ink-jet recording was filled into a desired ink cartridge, and the ink cartridge was attached to a digital multifunction device equipped with an ink-jet printer (DCP-110C, product of Brother Industries, Ltd.) to perform the printing evaluation. First, as an evaluation sample, a gradation sample of each cyan ink was printed on photo glossy paper (Model No. BP60GLA, product of Brother Industries, Ltd.) to prepare a patch having an initial OD value of 1.0. This patch was then subjected to an ozone resistance evaluation test using an Ozone Weather Meter OMS-H (product of Suga Test Instruments Co., Ltd.). That is, the patch was left to stand under the conditions of an ozone concentration of 1 ppm, a chamber temperature of 24° C. and a chamber humidity of 60% RH for 40 hours. Specifically, the color patch printed with each cyan ink and having an OD value of 1.0 before the test was then measured for an OD value after the ozone resistance evaluation test was completed. The OD value was measured by means of a Spectrolino (product of Gretag Macbeth) (light source: D65; viewing angle: 2°; Status A). […]
The obtained OD value reduction ratio was then evaluated according to the criteria below. When the OD value reduction ratio is less than 30%, the ozone resistance performance for general use is determined to be at an acceptable level. […]

Q: For C. I. Direct Blue 199 [Dye (2-C)], which “Ozone resistance (in words)” value is on record?
A: poor
